Test results reported in patent US8592446B2, “[1,10]-phenanthroline derivatives for the treatment of neurodegenerative or haematological diseases” (Noscira, S.A., priority 2007, dated 2013).

How the values were obtained:
Assay type in all cases: cell-based
[1] = tested on: SH-SY5Y human neuroblastoma cells; assay: Protection against 6-OHDA-induced cell death, condition A (10% foetal bovine serum); conditions: preincubated 2 hours, 6-OHDA 75 μM 16 hours, read-out: Protect. 6-OHDA (+ FBS) (minimum concentration with neuroprotective effect)
Text: (§1) The aim of this experiment is to determine the protective effect of the compounds of formula (1) against the toxicity caused by 6-OHDA. This toxin induces a cell death similar to which occurs in Parkinson's disease, destroying dopaminergic neurons (“MPTP and 6-hydroxydopamine-induced neurodegeneration as models for Parkinson's disease: neuroprotective strategies”; Grunblatt E, et al.; J Neurol. 2000 Apr; 247 Suppl 2:II95-102).
(§2) Two or three days before the experiment, the SH-SY5Y human neuroblastoma cells are seeded into 96-well culture plate at a density of 10^4 cells/well. Cells are exposed to the treatment with 6-OHDA and, finally, cell death is measured by LDH quantification. As positive control we used NAC.
• A) NAC and the compound of formula (I) are preincubated during 2 hours before the treatment with 6-OHDA 75 μM during 16 hours. The assay is performed in medium containing 10% Foetal bovine serum.
(§3) For each compound the minimum concentration of compound of formula (I) at which a neuroprotective effect is shown.

[2] = tested on: SH-SY5Y cells; assay: Neuroprotection against Aβ25-35 toxicity (LDH assay); conditions: Homo sapiens, pre-treated 1 hour, 200 μM Aβ25-35 24 hours, read-out: Protect. beta-Amyloid25-35 (minimum concentration showing neuroprotection)
Method: In order to evaluate potential neuroprotection of compounds, SH-SY5Y cells, cultured in 96-well plates, were pre-treated for 1 hour with the compound at different concentrations and then exposed 24 hours to 200 μM Aβ25-35 (Neosystem) to induce extensive oxidative stress and cell death. The ability of the compound of protecting against this toxicity is then evaluated by measuring intracellular LDH, using the colorimetric LDH assay.
It is widely accepted that the neurotoxic activity of Aβ resides within amino acids 25-35 (see e.g. Yankner B A et al., (1990) Neurotrophic and neurotoxic effects of amyloid β protein: reversal by tachykinin neuropeptides; Science 250:279-282).

[3] = tested on: SH-SY5Y human neuroblastoma cells; assay: Protection against 6-OHDA-induced cell death, condition B (no fetal bovine serum); conditions: preincubated 1 hour, 6-OHDA 50 μM 24 hours, read-out: Protect. 6-OHDA (−FBS) (minimum concentration with neuroprotective effect)
Text: as §1, §2
• B) NAC and the compound of formula (I) are preincubated during 1 hour before the treatment with 6-OHDA 50 μM during 24 hours. The assay is performed in a medium without any fetal bovine serum.
as §3

[4] = tested on: SH-SY5Y human neuroblastoma cells; assay: Toxicity: LDH activity release in SH-SY5Y cells; conditions: 24 h; for Maximum concentration tested for toxicity: increasing concentrations from 1 μM up to 1 mM; for Toxic at maximum concentration tested (Yes/No): at 10 μM
Method: The potential effects on cell viability of the assayed compounds are assayed in SH-SY5Y human neuroblastoma cells, by quantification of Lactate dehydrogenase (LDH) activity release. SH-SY5Y human neuroblastoma cells are seeded into 96-well culture plates at 10^4 cells/well. The medium is then removed and the cells incubated with different concentrations of the compounds during 24 h. The compounds are tested at increasing concentrations starting from 1 μM, in fresh culture medium, in order to find the minimum concentration at which the compounds are toxic, up to a maximum of 1 mM. After 24 h, the medium is removed and cells attached to the bottom of the well are lysed by adding 50 μl of Krebs-Hepes; Triton X-100 1% during 5 minutes at room temperature. For LDH release quantification, the Roche cytotoxicity detection kit (Cat.
No. 11 644 793 001) is used. The LDH activity is measured by its absorbance at 492 nm with reference wavelength 620 nm.
In Table 1, for each compound the maximum concentration at which toxicity was tested is indicated in the second column. In the third column, it is indicated whether at this maximum concentration the compound was toxic or not. All the compounds, with the exception of Compound 3, resulted non-toxic at the concentration for which activity was found, in most of the cases even at a 1000-fold concentration. Thus, the compounds may be considered non-toxic.

[5] = tested on: SH-SY5Y human neuroblastoma cells; assay: Protection against hydrogen peroxide-induced cell death (LDH); conditions: Homo sapiens, SH-SY5Y, compound 1 h before H2O2 100 μM, 24 h, read-out: Protect. H2O2 (minimum concentration for which protection was determined)
Method: The aim of this assay is to determine the neuroprotective effect of the compounds of formula (I), when human neuroblastoma cells are exposed to oxidative stress induced by hydrogen peroxide, which is highly deleterious to the cell and its accumulation causes oxidation of cellular targets such as DNA, proteins, and lipids leading to mutagenesis and cell death.
SH-SY5Y human neuroblastoma cells are seeded into 96-well culture plate at a density of 10^4 cells/well. Cells are exposed to different concentrations of the compound one hour before the treatment with H2O2 100 μM during 24 h. 5 mM N-acetylcysteine (NAC), a known anti-oxidant agent was used as a positive control, and preincubated 1 hour before the treatment with H2O2. After 24 h, the medium is removed and cells attached to the bottom of the well are lysed by adding 50 μl of Triton X-100 1% in Krebs-Hepes during 5 minutes at room temperature. For LDH release quantification, Roche cytotoxicity detection kit (Cat. No. 11 644 793 001) was used.

[6] = tested on: Aβ (1-40) secretion by CHO7W cells (stably transfected with human APP751 wt cDNA); assay: Inhibition of Aβ(1-40) secretion (ELISA, cellular supernatants); conditions: Homo sapiens, CHO-7W, Aβ 1-40 ELISA, read-out: Inhibition secretion beta-amyloid (minimum concentration)
Text: To quantitate Aβ secretion ELISA-based method was used. The assay consists in detection of antigen by selective monoclonal anti-Aβ-antibodies at two different epitopes forming a “Sandwich-complex”, that is detected by colorimetric measure due to the binding of a secondary antibody conjugated with peroxidase that catalyses the conversion of a substrate or chromogen, TMB, into a coloured product, directly proportional to the peptide quantity in the sample. The Aβ production has been analyzed by ELISA, using a colorimetric commercial kit: Immunoassay Kit Human β Amyloid 1-40 (Biosource).
Aβ (1-40) were quantified from cellular supernatants. An APP-transfected cell line has been employed for the experiments: CHO7W (stably transfected with human APP751 wt cDNA). The cells were grown in a culture medium consisting of DMEM supplemented with 2% Fetal bovine serum, 1% penicillin-streptomycin, 1% L-glutamine and 200 μg/ml G418. Cells are seeded in 96-well culture microplate, at 5000 cells/well and treatment with different compounds at different concentrations is performed 24 hour after seeding.
OM99-2 (H-5108, Bachem), a BACE inhibitor, was used as Aβ secretion reduction positive control in all the Aβ secretion studies. The cells were treated with this compound at 3 μM concentration, culture media were collected at 24 hours.

SMILES	minimal effective concentration [1]	minimal effective concentration [2]	minimal effective concentration [3]	Maximum concentration tested for toxicity [4]	Toxic at maximum concentration tested (Yes/No) [4]	minimal effective concentration [5]	minimal effective concentration [6]
O=C(O)CSc1cc(C=NO)nc2c1ccc1cccnc12 [Compound 16, [2-(Hydroxyimino-methyl)-[1,10]phenanthrolin-4-ylsulfanyl]-acetic acid]	0.5 µM	5 µM	10 µM	10 µM	Yes	0.05 µM	1 µM
Cc1nnc(Sc2cc(C=NO)nc3c2ccc2cccnc23)s1 [Compound 18, 4-(5-Methyl-[1,3,4]thiadiazol-2-ylsulfanyl)-[1,10]phenanthroline-2-carbaldehyde oxime]	0.05 µM	10 µM	10 µM	10 µM	Yes	0.05 µM	0.1 µM
